Values after ≈ are worked out from the molar mass of the structure shown.
Experiments:
[1] = tested on: spontaneous defecation in mice; conditions: mouse, in vivo
Description: Doxantrazole was used by dissolving it in 5% (w/v) NaHCO3 aqueous solution, and compound 1 was used by dissolving it in 0.5% methylcellulose aqueous solutions Male ddY mice under no fasting were reared in individual cages from the evening of the previous day of the experiment. On the day of the experiment, each compound was administered intraperitoneally (doxantrazole) or orally (compound 1), and the number of stools spontaneously excreted for 2 hours after the initiation of the experiment was measured.

[2] = tested on: rat abdominal mast cells; experiment: Release of histamine by an antigen-antibody reaction using rat abdominal mast cells (degranulation); type: cell-based; conditions: Mast cell, fluorescent method with o-phthalaldehyde, read-out: Degranulation (mast cells) (IC50 μg/ml)
Description: In addition, the inhibitory effects of compound 1 and cromolyn on the release of histamine by an antigen-antibody reaction using rat abdominal mast cells were measured by a fluorescent method which is a modified method of Shore et al. (The Journal of Pharmacology and Experimental Therapeutics, 1959, vol. 127, pp. 182-186) with o-phthalaldehyde.

[3] = tested on: restraint stress-induced defecation in the acetic acid-induced IBS model; experiment: Restraint stress-induced defecation in the acetic acid-induced IBS model; type: in vivo, rat; conditions: for ED50: Rattus norvegicus, male SD rats, 4% acetic acid IBS model, 30 min before restraint, stools for 1 hour; for ED50 / inhibitory effects on restraint stress-induced defecation (dose dependence): compound 1 po, cromolyn ip; for inhibitory effects on restraint stress-induced defecation (dose dependence): FIGS. 2 and 3
Description: (§1) Preparation of an IBS model was carried out by the following method with reference to the method of Jun-Ho La et al. (World J. Gastroenterol., 2003, vol. 9 (12), pp. 2791-2795). Male Sprague-Dawley (SD) rats or Wistar rats after an overnight fast were used. Colitis was induced by intracolonic instillation of 1 ml 4% acetic acid at 8 cm proximal to the anus for 30 seconds under light ether anesthesia. Then, 1 ml physiological saline was instilled to dilute the acetic acid and flush the colon twice. Rats were recovered from colitis for 6 days, and used for experiments shown in Examples 2 and 3 at 7 days after induction of colitis as “IBS rat (4% acetic acid)”. In addition, rats received physiological saline instead of acetic acid was used as a “control group (saline)”.
Cromolyn was used by dissolving it in physiological saline, and compound 1 and ketotifen were used by dissolving them in 0.5% methylcellulose aqueous solution, respectively. Each compound was intraperitoneally administered (cromolyn) or orally administered (compound 1 and ketotifen) to male SD rats under no fasting at 7 days after the 4% acetic acid treatment or physiological saline treatment. The animals were put into restraint stress cages (product name: KN-468 (B), mfd. by Natsume Seisakusho) 30 minutes thereafter and the number and weight of the stools excreted for 1 hour were measured (“stress”). On the other hand, the normal group was put into individual cage and the number and weight of the stools excreted for 1 hour were measured in the same manner (“normal”). Results of the restraint stress-induced defecation in the agent-nonadministered group are shown in FIG. 1, and the results of agent-administered groups in FIGS. 2 to 4 respectively.

[4] = tested on: abdominal contractions caused by colorectal distention in the acetic acid-induced IBS model; experiment: Viscerosensory response to colorectal distention (number of abdominal contractions) in the acetic acid-induced IBS model; type: in vivo, rat; conditions: for inhibitory effects on abdominal contractions, concomitant use with alosetron: alosetron 0.1 mg/kg, po + compound 1 0.01 mg/kg, po or cromolyn 20 mg/kg, ip, FIG. 8
Description: as §1
Male Wistar rats under no fasting at 7 days after 4% acetic acid treatment or physiological saline treatment were used. Under light ether anesthesia, a latex balloon of 6 cm in length was inserted intra-anally until the end of the balloon was 2 cm inside the rectum. The catheter connecting from the balloon was fixed to the tail base with a tape and connected to a pressure transducer via a three-way cock. After restoration from the ether anesthesia in a cage (23.5×19×19 cm), nociceptive behavior (the number of abdominal contractions) to colorectal distention (15, 30, 45, 60 mmHg) applied stepwise at 5 minute intervals was measured. […] In this connection, each compound was administered 30 minutes before the colorectal distention.

[5] = tested on: IBS patients; conditions: cited from earlier work

## O=C(Nc1nnn[nH]1)c1cc(Oc2ccccc2)c2ccccn2c1=O [Compound 1, N-(1H-tetrazol-5-yl)-1-phenoxy-4H-quinolizin-4-one-3-carboxamide]
[1]
  effect on the spontaneous defecation in mice: no effect
[2]
  IC50: 0.0074 µg/mL (≈ 0.0212 µM)
[3]; 1 mg/kg, po
  inhibition of restraint stress-induced defecation at 1 mg/kg, po: inhibited it almost completely
[3]
  ED50: 0.0071 mg/kg
  inhibitory effects on restraint stress-induced defecation (dose dependence): in a dose-dependent manner
[4]
  inhibitory effects on abdominal contractions, concomitant use with alosetron: additively
[4]; compound 1 0.01 mg/kg, po + ramosetron 0.01 mg/kg, po, FIG. 7
  inhibitory effects on abdominal contractions, concomitant use with ramosetron: additively
[4]; male Wistar rats, 0.01 and 1 mg/kg, po, 30 min before distention, FIG. 6
  inhibitory effects on the abdominal contractions caused by the colorectal distention: dose-dependent inhibitory effects

## Cc1[nH]cnc1CN1CCc2c(c3ccccc3n2C)C1=O [alosetron]
[4]; 0.1 mg/kg, po
  inhibitory effects on abdominal contractions, alosetron alone: maximal inhibitory effects
[5]
  improvement rate for abdominal symptoms and diarrhea: about 50%

## O=C(O)c1cc(=O)c2c(OCC(O)COc3cccc4oc(C(=O)O)cc(=O)c34)cccc2o1 [Cromolyn, sodium cromoglycate]
[2]
  IC50: 2.2 µg/mL
[3]; 100 mg/kg, ip
  inhibition of restraint stress-induced defecation at 100 mg/kg, ip: inhibited it almost completely
[3]
  ED50: 19.9 mg/kg
  inhibitory effects on restraint stress-induced defecation (dose dependence): in a dose-dependent manner
[4]
  inhibitory effects on abdominal contractions, concomitant use with alosetron: reinforcement of the effect was not found

## O=C1c2ccccc2S(=O)(=O)c2cc(-c3nnn[nH]3)ccc21 [doxantrazole]
[1]
  effect on the spontaneous defecation in mice: inhibitory tendency

## CN1CCC(=C2c3ccccc3CC(=O)c3sccc32)CC1 [ketotifen]
[3]; po, maximum effect, FIG. 4
  inhibitory effects on restraint stress-induced defecation at the maximum: about 30%

## Cn1cc(C(=O)[C@@H]2CCc3nc[nH]c3C2)c2ccccc21 [ramosetron]
[4]; 0.01 mg/kg, po
  inhibitory effects on abdominal contractions, ramosetron alone: maximal inhibitory effects

Reference: patent US7842702B2, “Treatment for irritable bowel syndrome” (Astellas Pharma Inc., priority 2007, dated 2010)
